Measured values from PubChem BioAssay (NCI).
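Method: 48-hour compound exposure of cells in 96-well plates, five concentrations, linear interpolation of endpoints. At the GI50, growth is halved. TGI is the concentration that stops growth completely.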

Key:
Experiment in all cases: DTP human tumour cell line panel, 48 h
[1] = test system: NCI-H522 lung
[2] = test system: SR leukemia
[3] = test system: CAKI-1 renal
[4] = test system: HCT-15 colon
[5] = test system: OVCAR-3 ovarian
[6] = test system: HOP-92 NSCLC
[7] = test system: MDA-MB-231 breast
[8] = test system: A498 renal
[9] = test system: HCC-2998 colon
[10] = test system: HT29 colon
[11] = test system: HL-60(TB) leukemia
[12] = test system: OVCAR-5 ovarian
[13] = test system: BT-549 breast
[14] = test system: HOP-62 NSCLC
[15] = test system: ACHN renal
[16] = test system: NCI-H23 lung
[17] = test system: 786-0 renal
[18] = test system: PC-3 prostate
[19] = test system: SNB-75 CNS
[20] = test system: MDA-MB-435
[21] = test system: SF-295 CNS
[22] = test system: NCI-H460 lung
[23] = test system: DU-145 prostate
[24] = test system: SNB-19 CNS
[25] = test system: M14 melanoma
[26] = test system: MCF7 breast
[27] = test system: RPMI-8226 leukemia

COc1ccc2c(CCC(c3ccccc3)c3ccccc3)c3[n+](cc2c1OC)CCc1cc2c(cc1-3)OCO2
TGI [1]: 858 nM
GI50 [2]: 373 nM
TGI [2]: 3240 nM
GI50 [3]: 3940 nM
TGI [3]: 16100 nM
GI50 [4]: 2280 nM
TGI [4]: 7430 nM
GI50 [5]: 28 nM
TGI [5]: 1300 nM
GI50 [6]: 150 nM
TGI [6]: 596 nM
GI50 [7]: 1100 nM
TGI [7]: 3480 nM
GI50 [8]: 1310 nM
TGI [8]: 6800 nM
GI50 [9]: 326 nM
TGI [9]: 1930 nM
GI50 [10]: 139 nM
TGI [10]: 1310 nM
GI50 [11]: 82.2 nM
TGI [11]: 526 nM
GI50 [12]: 1760 nM
TGI [12]: 5950 nM
GI50 [13]: 268 nM
TGI [13]: 1350 nM
GI50 [14]: 546 nM
TGI [14]: 1800 nM
GI50 [15]: 1290 nM
TGI [15]: 5220 nM
GI50 [16]: 242 nM
TGI [16]: 1940 nM
GI50 [17]: 1090 nM
TGI [17]: 2500 nM
GI50 [18]: 112 nM
TGI [18]: 837 nM
GI50 [19]: 266 nM
TGI [19]: 1840 nM
GI50 [20]: 143 nM
TGI [20]: 1410 nM
GI50 [21]: 732 nM
TGI [21]: 3990 nM
GI50 [22]: 12.3 nM
TGI [22]: 1030 nM
GI50 [23]: 348 nM
TGI [23]: 1800 nM
GI50 [24]: 242 nM
TGI [24]: 1740 nM
GI50 [25]: 296 nM
TGI [25]: 1740 nM
GI50 [26]: 483 nM
TGI [26]: 3220 nM
GI50 [27]: 50.7 nM
TGI [27]: 1720 nM
